Data set [1] relates to NCI-H460. Kind of data set: Cytotoxicity in human NCI-H460 cells assessed as reduction in cell viability incubated for 72 hrs by MTT assay. To be noted: NCI-H460, 72 h. Format: functional, cell-based.
Data set [2] deals with HL-60. Kind of data set: Cytotoxicity in human HL-60 cells assessed as reduction in cell viability incubated for 72 hrs by MTT assay. Format: functional, cell-based. To be noted: HL-60, 72 h. (Tetrazolium dyes change colour on reduction, which living cells bring about.)
Data set [3] concerns CAPAN-1. Description: Cytotoxicity in human CAPAN-1 cells assessed as reduction in cell viability incubated for 72 hrs by MTT assay. In kind it is functional, cell-based. To be noted: CAPAN-1, 72 h.
Data set [4] is described as follows: Cytotoxicity in human DND41 cells assessed as reduction in cell viability incubated for 72 hrs by MTT assay. Format: functional, cell-based. The conditions noted are these: DND41, 72 h.
Data set [5] has as its system K562. Kind of data set: Induction of cell cycle arrest in human K562 cells assessed as increase in accumulation at sub-G1 phase at 2.5 uM after 48 hrs by propidium iodide staining based flow cytometric analysis (reference value: 8.4%). Format: functional. (In general: Flow cytometry measures light scatter and fluorescence of single cells or particles in a stream.)
Data set [6] relates to HCT-116. Description: Cytotoxicity in human HCT-116 cells assessed as reduction in cell viability incubated for 72 hrs by MTT assay. In kind it is functional, cell-based. To be noted: HCT-116, 72 h.
The test system of data set [7] is Calf thymus DNA. Description: Binding affinity to calf thymus double strand DNA incubated for 5 mins by spectrophotometry. Format: nucleic-acid assay. To be noted: Bos taurus.
Data set [8] has as its system K562. Description: Induction of apoptosis in human K562 cells assessed as activation of PARP cleavage measured after 24 hrs by Western blot analysis. In kind it is functional, cell-based.
Data set [9] concerns HeLa. Kind of data set: Cytotoxicity in human HeLa cells assessed as reduction in cell viability incubated for 72 hrs by MTT assay. Format: functional, cell-based.
Data set [10] has as its system K562. Kind of data set: Induction of cell cycle arrest in human K562 cells assessed as increase in accumulation at sub-G1 phase at 0.5 uM after 24 hrs by propidium iodide staining based flow cytometric analysis (reference value: 8.4%). Format: functional.
The nature of data set [11]: Drug localization in lysosome of mouse NIH3T3 cells at 1 uM incubated for 60 mins by lyso-tracker red based confocal microscopic method. To be noted: nih3t3, 1 h. In kind it is ADME, cell-based.
For data set [12], the system named is K562. Kind of data set: Induction of cell cycle arrest in human K562 cells assessed as increase in accumulation at sub-G1 phase at 5 uM after 24 hrs by propidium iodide staining based flow cytometric analysis (reference value: 8.4%). In kind it is functional.
Data set [13] concerns K562. Description: Induction of apoptosis in human K562 cells assessed as activation of casapse-9 cleavage measured after 24 hrs by Western blot analysis. Format: functional, cell-based. Background: A western blot detects proteins with antibodies after separation by electrophoresis.
Data set [14] in a line: Cytotoxicity in human K562/4 cells assessed as reduction in cell viability incubated for 72 hrs by MTT assay. To be noted: K562/4, 72 h. Format: functional, cell-based.
Data set [15] relates to Fibroblast. Description: Cytotoxicity in human Fibroblast cells assessed as reduction in cell viability incubated for 72 hrs by MTT assay. Format: functional, cell-based.
Data set [16] in a line: Drug localization in lysosome of mouse NIH3T3 cells at 1 uM incubated for 5 mins by lyso-tracker red based confocal microscopic method. In kind it is ADME, cell-based. The conditions noted are these: nih3t3, 5 min.
The nature of data set [17]: Resistance index, ratio of IC50 for cytotoxicity against human K562/4 cells to IC50 for cytotoxicity against human K562 cells. In kind it is functional.
Data set [18] deals with K562. Kind of data set: Induction of ROS generation in human K562 cells at 5 uM after 30 to 60 mins by Deep Red dye based flow cytometry method. Format: functional, cell-based. To be noted: time 30-60 min.
In data set [19] the test system is K562. Kind of data set: Induction of cell cycle arrest in human K562 cells assessed as increase in accumulation at sub-G1 phase at 2.5 uM after 24 hrs by propidium iodide staining based flow cytometric analysis (reference value: 8.4%). Format: functional.
Data set [20] relates to K562. Description: Induction of mitochondrial membrane potential loss in human K562 cells at 7.5 uM after 6 hrs by Mitotracker Red dye based flow cytometric analysis. Format: functional, cell-based.
Data set [21] can be described thus: Drug localization in nuclei of mouse NIH3T3 cells at 1 uM incubated for 5 to 60 mins by Hoechst 33258 staining based laser confocal microscopy. In kind it is ADME, cell-based. The conditions noted are these: nih3t3, 1 µM, time 5-60 min.
Data set [22] deals with T1, DNA topoisomerase 1 (Homo sapiens) (UniProt P11387).
T1 sequence (whole entry): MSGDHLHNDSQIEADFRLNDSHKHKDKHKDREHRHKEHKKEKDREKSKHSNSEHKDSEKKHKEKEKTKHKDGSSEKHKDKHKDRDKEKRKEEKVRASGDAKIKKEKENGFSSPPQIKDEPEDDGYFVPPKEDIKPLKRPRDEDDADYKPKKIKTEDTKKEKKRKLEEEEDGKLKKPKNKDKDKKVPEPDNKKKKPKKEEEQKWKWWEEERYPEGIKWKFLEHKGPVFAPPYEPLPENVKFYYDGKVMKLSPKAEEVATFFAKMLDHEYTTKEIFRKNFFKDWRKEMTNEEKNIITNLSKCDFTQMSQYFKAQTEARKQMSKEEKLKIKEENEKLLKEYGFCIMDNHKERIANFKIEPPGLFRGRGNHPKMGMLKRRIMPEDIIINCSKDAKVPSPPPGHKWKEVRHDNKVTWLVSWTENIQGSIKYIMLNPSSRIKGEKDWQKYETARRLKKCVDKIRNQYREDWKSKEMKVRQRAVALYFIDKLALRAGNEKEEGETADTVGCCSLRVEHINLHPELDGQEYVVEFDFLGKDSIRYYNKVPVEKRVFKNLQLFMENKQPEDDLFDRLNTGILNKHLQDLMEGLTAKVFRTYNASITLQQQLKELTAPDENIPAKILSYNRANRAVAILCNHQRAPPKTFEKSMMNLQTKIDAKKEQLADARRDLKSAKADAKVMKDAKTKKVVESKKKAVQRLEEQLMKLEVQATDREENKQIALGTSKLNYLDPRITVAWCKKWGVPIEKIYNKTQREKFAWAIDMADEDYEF
Kind of data set: Inhibition of topoisomerase 1 (unknown origin) assessed as relaxation of supercoiled plasmid pBR322 DNA at 1 to 5 uM incubated for 30 mins by electrophoresis. To be noted: dose 1-5 µM.

Data set [23] in a line: Drug localization in mitochondria of mouse NIH3T3 cells at 1 uM measured after 60 mins by MitoTracker red based confocal microscopic method. To be noted: nih3t3, 1 h. In kind it is ADME.
Data set [24] deals with K562. Description: Induction of cell cycle arrest in human K562 cells assessed as increase in accumulation at sub-G1 phase at 0.5 uM after 48 hrs by propidium iodide staining based flow cytometric analysis (reference value: 8.4%). Format: functional.
The nature of data set [25]: Drug localization in mitochondria of mouse NIH3T3 cells at 1 uM measured after 5 mins by MitoTracker red based confocal microscopic method. To be noted: nih3t3, 5 min. Format: ADME.
The nature of data set [26]: Drug localization in cytoplasm of mouse NIH3T3 cells at 1 uM incubated for 5 to 60 mins by laser confocal microscopy. The conditions noted are these: nih3t3, 1 µM, time 5-60 min. In kind it is ADME, cell-based.
The test system of data set [27] is K562. Description: Induction of apoptosis in human K562 cells assessed as activation of casapse-3 cleavage measured after 24 hrs by Western blot analysis. In kind it is functional, cell-based. To be noted: dose 2.5 µM.
Data set [28] relates to K562. Kind of data set: Induction of cell cycle arrest in human K562 cells assessed as increase in accumulation at sub-G1 phase at 5 uM after 48 hrs by propidium iodide staining based flow cytometric analysis (reference value: 8.4%). In kind it is functional.
In data set [29] the test system is HCT-116. Kind of data set: Cytotoxicity against p53 knock out human HCT-116 cells assessed as reduction in cell viability incubated for 72 hrs by MTT assay. In kind it is functional, cell-based. The conditions noted are these: HCT-116, 72 h.
A short description of data set [30]: Resistance index, ratio of IC50 for cytotoxicity against p53 knock out human HCT-116 cells to IC50 for cytotoxicity against human HCT-116 cells. In kind it is functional.

Molecules are shown by their SMILES. Calls of active or inactive are those of the source. The rule behind the calls is not given here.

The values below come from ChEMBL document CHEMBL4837230, “Thiophene-2-carboxamide derivatives of anthraquinone: A new potent antitumor chemotype” (Eur J Med Chem, 2021).

`NCCNC(=O)c1cc2c(O)c3c(c(O)c2s1)C(=O)c1ccccc1C3=O`: the IC50 in [1] is 8.3 µM; in data set [2], more than 20000 nM; in data set [3], more than 20000 nM; in data set [4], 3700 nM.

For the compound `Cc1c(C(=O)N2CC[C@H](N)C2)sc2c(O)c3c(c(O)c12)C(=O)c1ccccc1C3=O`, the IC50 worked out at 5 µM in [1], 200 nM in data set [2], 2200 nM in data set [3] and 1600 nM in [4].

As to `O=C(NC1CN2CCC1CC2)c1cc2c(O)c3c(c(O)c2s1)C(=O)c1ccccc1C3=O` (stereo not drawn), the IC50 in data set [1] is more than 20 µM; in data set [2], 7300 nM; in [3], 4600 nM; in data set [4], 2400 nM.

For `O=C(N[C@H]1CCNC1)c1cc2c(O)c3c(c(O)c2s1)C(=O)c1ccccc1C3=O`, the IC50 in data set [1] came out at 3.5 µM; in [2], 2900 nM; in data set [3] it was 6300 nM; in [4], 1000 nM.

With `N[C@H]1CCN(C(=O)c2cc3c(O)c4c(c(O)c3o2)C(=O)c2ccccc2C4=O)C1`, the Activity in data set [5] is on record as 23%; in data set [10], 14.8%; in [12] it was 40.2%; in data set [19] it was 24.2%; in data set [24] it was 7%; in data set [28], 48.7%. The IC50 in [6] was more than 50 µM; in data set [1], more than 20 µM; in data set [9], more than 50 µM; in data set [14], 600 nM; in [15] it was more than 50000 nM; in data set [2] it was 700 nM. Moreover, the figures for the IC50 in [3], in [4] and in [29] were more than 20000 nM, 1500 nM and more than 50 µM, respectively. Further, the outcome in data set [7] was Active. In addition, the outcome in [8], in data set [13], in data set [18], in data set [20] and in [27] was inactive. The Drug uptake entry is reported as “Active” in data set [11]; “Active” in data set [16]; “Not Active” in data set [21]; “Not Active” in [23]; “Not Active” in data set [25]; “Active” in data set [26]. Besides, the Ratio in [17] came out at 1.2; in [30] it was 1. In data set [22], the inhibition result was “Active”.

Regarding `NC1CCCN(C(=O)c2cc3c(O)c4c(c(O)c3s2)C(=O)c2ccccc2C4=O)C1` (racemic), the IC50 in [1] stood at 0.4 µM; in [2], 400 nM; in data set [3] it was 1200 nM; in data set [4] it was 600 nM.

As for `Cc1c(C(=O)N2CC[C@@H](N)C2)sc2c(O)c3c(c(O)c12)C(=O)c1ccccc1C3=O`, the IC50 in [1] turned out to be 1.2 µM; in data set [2] it was 1800 nM; in data set [3], 2000 nM; in data set [4], 1400 nM.

With `O=C(N[C@@H]1CCNC1)c1cc2c(O)c3c(c(O)c2s1)C(=O)c1ccccc1C3=O`, the IC50 came to 4.1 µM in data set [1], 2700 nM in data set [2], 5800 nM in [3] and 1300 nM in [4].

In the case of `O=C(NC1CCNCC1)c1cc2c(O)c3c(c(O)c2s1)C(=O)c1ccccc1C3=O`, the IC50 turned out to be 1.4 µM in [1], 3200 nM in [2], 600 nM in data set [3] and 1600 nM in data set [4].

With `N[C@@H]1CCN(C(=O)c2cc3c(O)c4c(c(O)c3s2)C(=O)c2ccccc2C4=O)C1`, the half-inhibitory concentration (IC50) came out at 0.4 µM in [1], 1100 nM in data set [2], 1500 nM in data set [3] and 400 nM in data set [4].

Consider `N[C@@H]1CN(C(=O)c2cc3c(O)c4c(c(O)c3s2)C(=O)c2ccccc2C4=O)C[C@H]1N`, for which the IC50 in [1] is 16.1 µM; in data set [2], more than 20000 nM; in data set [3], more than 20000 nM; in [4], 10900 nM.

Turning to `N[C@H]1CCN(C(=O)c2csc3c(O)c4c(c(O)c23)C(=O)c2ccccc2C4=O)C1`, the IC50 in data set [4] came to 2600 nM.

Take `O=C(NC1CCCNC1)c1cc2c(O)c3c(c(O)c2s1)C(=O)c1ccccc1C3=O` (racemic): the IC50 in data set [1] was 1.4 µM; in [2], 1100 nM; in data set [3], 2300 nM; in data set [4], 1000 nM.

As for `NCCN(CCN)C(=O)c1cc2c(O)c3c(c(O)c2s1)C(=O)c1ccccc1C3=O`, the IC50 in [1] was 8.3 µM; in data set [2], 14100 nM; in data set [3], 16800 nM; in data set [4], 3100 nM.

With `COc1cccc2c1C(=O)c1c(O)c3c(c(O)c1C2=O)C[C@@](O)(C(=O)CO)C[C@@H]3O[C@H]1C[C@H](N)[C@H](O)[C@H](C)O1` [DOXORUBICIN], the IC50 in data set [1] stood at 0.4 µM; in data set [15], 200 nM; in data set [3], 1700 nM; in [4] it was 700 nM.

The IC50 is the midpoint of a concentration-inhibition curve.
